According to ChEMBL document CHEMBL1127178, “Nucleosides and nucleotides. 117. A transition-state analogue in purine nucleotide biosynthesis: the design and synthesis of an imidazo[4,5-c]azepine nucleoside” (Bioorg Med Chem Lett, 1993):
Values after ≈ are worked out from the molar mass of the structure shown.

System: L1210
Experiment: Cytotoxicity of compound was determined in terms of effective concentration required against murine L1210 cells
Format: functional, cell-based
Conditions: Mus musculus

## O=C1NC(O)C=Cc2c1ncn2C1O[C@H](CO)C(O)[C@H]1O (single isomer, unassigned)
  EC50: 5 µg/mL (≈ 16.8 µM)
